In the experiment the target is T1, adenine deaminase (Ade) (Clostridioides difficile, UniProt A0A9R0BKJ2).
T1 construct: codon-optimized ade in pWL613a (pET28b derivative), N-terminal His-tag, expressed in E. coli BL21(DE3), Ni-NTA and Superdex 200
In words: surface plasmon resonance, His-captured protein. The experiment is classed as binding. Background: In SPR one partner is held on a chip, and binding of the other changes the refractive index at the surface.

Molecules are shown by their SMILES.

The record followed here is article PMC11566853, “Chemical genetic analysis of enoxolone inhibition of Clostridioides difficile toxin production reveals adenine deaminase and ATP synthase as antivirulence targets” (The Journal of Biological Chemistry, 2024).

T1 sequence (A0A9R0BKJ2 entry or part of it): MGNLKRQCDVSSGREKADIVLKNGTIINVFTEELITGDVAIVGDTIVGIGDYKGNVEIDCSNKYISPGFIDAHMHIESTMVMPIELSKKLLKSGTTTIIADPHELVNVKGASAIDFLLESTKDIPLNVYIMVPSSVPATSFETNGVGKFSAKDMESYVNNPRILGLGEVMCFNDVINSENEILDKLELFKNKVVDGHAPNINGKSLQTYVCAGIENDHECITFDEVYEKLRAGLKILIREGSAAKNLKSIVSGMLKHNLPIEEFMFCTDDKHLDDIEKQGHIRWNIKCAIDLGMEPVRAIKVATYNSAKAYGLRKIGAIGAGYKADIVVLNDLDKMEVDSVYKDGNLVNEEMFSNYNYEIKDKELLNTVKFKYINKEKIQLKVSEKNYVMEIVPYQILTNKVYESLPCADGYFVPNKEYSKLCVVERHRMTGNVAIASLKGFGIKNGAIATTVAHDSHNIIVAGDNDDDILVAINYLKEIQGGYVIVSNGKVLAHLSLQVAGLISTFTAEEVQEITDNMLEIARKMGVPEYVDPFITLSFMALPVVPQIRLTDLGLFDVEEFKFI

By Kd is commonly meant a measure of binding affinity in units of concentration. Higher therefore signals lower affinity. In turn, `Clc1ncnc2[nH]cnc12` [6-chloropurine] came in with a dissociation constant (Kd) of 264 ± 42.9 µM.
The figure for `CC1(C)[C@@H](O)CC[C@]2(C)[C@H]3C(=O)C=C4[C@@H]5C[C@@](C)(C(=O)O)CC[C@]5(C)CC[C@@]4(C)[C@]3(C)CC[C@@H]12` [enoxolone] is 34.6 ± 13.4 µM.
